From publication PMC3914206

How the values were obtained:
Type in all cases: binding
Details in all cases: Compound Concentration 10 µM
panel of 442 kinases [1] = target: panel of 442 kinases (Homo sapiens, UniProt P19784)
Text: (§1) We assessed the selectivity of members of this scaffold using the KINOMEscan methodology across a near comprehensive panel of 442 kinases [[18,27]].

panel of 442 kinases [2] = target: T1, panel of 442 kinases (Homo sapiens, UniProt P29322)
T1 construct: purchased KINOMEscan
T1 sequence (P29322 28-1005): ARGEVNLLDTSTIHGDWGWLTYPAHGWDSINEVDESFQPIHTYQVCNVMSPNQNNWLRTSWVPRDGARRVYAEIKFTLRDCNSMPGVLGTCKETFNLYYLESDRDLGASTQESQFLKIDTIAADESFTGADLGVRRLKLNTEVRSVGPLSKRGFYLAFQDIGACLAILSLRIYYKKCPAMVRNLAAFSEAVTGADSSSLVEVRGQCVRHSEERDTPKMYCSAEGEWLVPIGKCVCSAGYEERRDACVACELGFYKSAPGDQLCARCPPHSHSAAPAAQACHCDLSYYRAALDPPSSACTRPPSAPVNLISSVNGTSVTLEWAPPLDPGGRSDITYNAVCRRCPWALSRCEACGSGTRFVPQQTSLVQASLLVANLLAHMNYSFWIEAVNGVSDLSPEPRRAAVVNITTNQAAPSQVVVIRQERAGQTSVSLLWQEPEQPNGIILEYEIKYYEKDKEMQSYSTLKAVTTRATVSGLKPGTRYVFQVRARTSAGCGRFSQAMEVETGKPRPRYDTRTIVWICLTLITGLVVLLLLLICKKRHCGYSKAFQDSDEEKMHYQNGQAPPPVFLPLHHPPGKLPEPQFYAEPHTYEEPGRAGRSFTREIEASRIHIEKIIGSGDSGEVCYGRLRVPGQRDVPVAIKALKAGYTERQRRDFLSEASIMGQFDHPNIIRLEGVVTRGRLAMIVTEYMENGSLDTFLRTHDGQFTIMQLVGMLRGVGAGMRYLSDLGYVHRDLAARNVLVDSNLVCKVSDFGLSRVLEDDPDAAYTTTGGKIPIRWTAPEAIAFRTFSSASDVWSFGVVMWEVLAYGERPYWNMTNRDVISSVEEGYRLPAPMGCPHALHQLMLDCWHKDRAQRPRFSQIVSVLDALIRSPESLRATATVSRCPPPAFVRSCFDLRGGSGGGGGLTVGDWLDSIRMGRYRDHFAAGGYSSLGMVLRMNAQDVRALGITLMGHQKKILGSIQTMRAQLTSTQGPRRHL
Text: as §1

panel of 442 kinases [3] = target: T2, panel of 442 kinases (Homo sapiens, UniProt P68400)
T2 construct: purchased KINOMEscan
Text: as §1

T2 sequence (P68400 whole entry): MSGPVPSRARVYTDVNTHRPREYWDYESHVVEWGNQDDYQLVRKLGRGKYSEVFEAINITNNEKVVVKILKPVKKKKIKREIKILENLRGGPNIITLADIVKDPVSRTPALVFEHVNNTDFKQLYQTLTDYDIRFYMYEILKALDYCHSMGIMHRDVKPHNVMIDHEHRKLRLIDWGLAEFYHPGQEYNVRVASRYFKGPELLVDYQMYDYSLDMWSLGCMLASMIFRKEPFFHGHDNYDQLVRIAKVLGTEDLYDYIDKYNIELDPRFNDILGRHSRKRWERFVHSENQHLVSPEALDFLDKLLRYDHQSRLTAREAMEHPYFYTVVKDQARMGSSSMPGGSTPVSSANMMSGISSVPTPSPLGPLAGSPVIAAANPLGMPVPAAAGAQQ
panel of 442 kinases (Homo sapiens, UniProt P19784), sequence (P19784 whole entry): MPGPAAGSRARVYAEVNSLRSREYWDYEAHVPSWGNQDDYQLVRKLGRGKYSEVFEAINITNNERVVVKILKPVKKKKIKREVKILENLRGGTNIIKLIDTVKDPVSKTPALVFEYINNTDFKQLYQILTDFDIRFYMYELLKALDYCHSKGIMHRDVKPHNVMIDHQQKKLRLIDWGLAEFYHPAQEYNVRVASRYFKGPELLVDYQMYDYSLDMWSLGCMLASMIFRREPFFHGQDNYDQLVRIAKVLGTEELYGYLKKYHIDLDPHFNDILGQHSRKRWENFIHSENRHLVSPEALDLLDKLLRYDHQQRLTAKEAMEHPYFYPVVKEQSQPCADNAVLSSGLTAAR

Structure (SMILES) | KINOMEscan: CSNK2A2 (panel of 442 kinases [1]) | KINOMEscan: EPHA8 (panel of 442 kinases [2]) | KINOMEscan: CSNK2A1 (panel of 442 kinases [3])
COc1cc(C(=O)N2CCC(N3CCN(C)CC3)CC2)ccc1Nc1ncc2c(n1)N(C)c1ccccc1C(=O)N2C [15 (LRRK2-IN-1)] | 93 | 80 | 100
COc1cc(C(=O)N2CCC(N3CCN(C)CC3)CC2)ccc1Nc1ncc2c(n1)N1CCc3cccc(c31)C(=O)N2C [Compound 24] |  | 72 | 
COc1cc(C(=O)N2CCC(N3CCN(C)CC3)CC2)ccc1Nc1ncc2c(n1)N(C1CCCC1)c1ccccc1C(=O)N2C [Compound 25, 11-cyclopentyl-2-((2-methoxy-4-(4-(4-methylpiperazin-1-yl)piperidine-1-carbonyl)phenyl)amino)-5-methyl-5H-benzo[e]pyrimido[5,4-b][1,4]diazepin-6(11H)-one] | 100 | 97 | 100
CCOc1cc(C(=O)N2CCC(N3CCN(C)CC3)CC2)ccc1Nc1ncc2c(n1)N(C1CCCC1)c1ccccc1C(=O)N2C [Compound 26] | 97 | 100 | 89
